This is an account of results in paper PMC8145572 (Viruses, 2021).

Entries after “also recorded” stand apart in the source; their conditions may differ. Where two headings read alike, the source gives them in different places.

Series [1] concerns DENV-infected SK-N-MC cells. Description: WST-1 cell viability assay, DENV-infected SK-N-MC cells. The series is classed as cell-based, human. Conditions: MOI 0.1, 3 days. (Tetrazolium dyes change colour on reduction, which living cells bring about.)
For series [2], the system named is SK-N-MC cells. The series can be described thus: WST-1 cell proliferation assay, uninfected SK-N-MC cells. Conditions: uninfected SK-N-MC cells; for cytotoxicity in uninfected cells: evaluated concentrations; for CC50: 72 h.
Assay in series [3]: as above
Conditions: human.

For series [4], the system named is HFF-1 cells. Description: WST-1 cell proliferation assay, uninfected HFF-1 cells. Conditions: uninfected HFF-1 cells; for cytotoxicity in uninfected cells: evaluated concentrations; for CC50: 72 h.
Assay in series [5]: as above
Conditions: human.

Series [6] deals with DENV-infected HFF-1 cells. Description: WST-1 cell viability assay, DENV-infected HFF-1 cells. It is filed as cell-based, human. The following applies: MOI 1, 3 days.
Series [7] concerns DENV-infected HUH-7 cells. The series can be described thus: WST-1 cell viability assay, DENV-infected HUH-7 cells. It is filed as cell-based, human. The following applies: MOI 0.01, 3 days.
Series [8] concerns Dengue virus serotype 2 (DENV2), strain New Guinea C. The series can be described thus: Antiviral evaluation. Conditions: for EC50: MOI 0.01, AUC of viral burden over 3 days. It is filed as cell-based.
Series [9] shares this test system. Description: Antiviral evaluation. It is filed as cell-based. Conditions: SK-N-MC cells; for EC50: MOI 0.1, AUC of viral burden over 4 days.
For series [10], the system named is HUH-7 cells. The series can be described thus: WST-1 cell proliferation assay, uninfected HUH-7 cells. Conditions: uninfected HUH-7 cells; for cytotoxicity in uninfected cells: evaluated concentrations; for CC50: 72 h.
Assay in series [11]: as above
Conditions: human.

For series [12], the system named is Dengue virus serotype 2 (DENV2), strain New Guinea C. Description: Antiviral evaluation. The series is classed as cell-based. Conditions: HFF-1 cells; for EC50: MOI 0.1, AUC of viral burden over 2 days; for viral burden in all treatment arms: all concentrations.
The conditions of series [13]: Phase I study, one-time dose of 1000 mg; cited from earlier work.
The subject of series [14] is Dengue virus serotype 2 (DENV2), strain New Guinea C. Description: Combination drug assay UV-4B and IFN, DENV-infected HUH-7 cells, plaque assay. The series is classed as cell-based. The following applies: day 2, 25 µM.
For series [15] the test system is unchanged. Description: Combination drug assay UV-4B and IFN, DENV-infected SK-N-MC cells, plaque assay. The following applies: 400 µM. The series is classed as cell-based.

Regarding `NC(=O)c1nc(F)c[nH]c1=O` [FAV, favipiravir], the “cell viability of infected cells” value in series [1], in series [6] and in [7] was “limited effect on cell health” in each case. Further, the “cytotoxicity in uninfected cells” value in [2], in series [4] and in series [10] was “no cytotoxicity” each time. Besides, the CC50 at 72 h in series [3], in series [5] and in series [11] was greater than 500 µM in each case. The EC50 (in general, the midpoint of the concentration-response curve) in series [8] (Dengue virus, DENV2, Huh-7, 72 h, HUH-7 cells) was 147 µM; in [8] (HUH-7 cells, read-out: EC50), 149 µM; in series [9] (Dengue virus, DENV2, 96 h), 288 µM; in series [12] (Dengue virus, DENV2, 48 h) it was greater than 500 µM. Moreover, the “decrease in titers relative to the control” value in series [8] (HUH-7 cells, 250 µM) was “approximate tenfold decrease”. Also, in [8] (HUH-7 cells, highest concentration evaluated), the “maximum reduction in viral titers” value is on record as 1.2 log10 PFU/mL. In addition, the “lowering of viral titers” value in series [9] (Day 2, 250 µM) is recorded as “approximately 0.6 log10 PFU/mL”. Further, the “total reduction of viral titers” value in [9] (Day 2, 500 µM) was 1.3 log10 PFU/mL. Further, the “additional decrease of viral titers over 250 µM” value in series [9] (Day 2, 500 µM versus 250 µM) was found to be 0.7 log10 PFU/mL. Further, in series [12], the “viral burden in all treatment arms” value is listed as “completely ineffective”.
As for `CC(C)OC(=O)[C@H](C)N[P@](=O)(OC[C@H]1O[C@@H](n2ccc(=O)[nH]c2=O)[C@](C)(F)[C@@H]1O)Oc1ccccc1` [SOF, sofosbuvir], the “cell viability of infected cells” value in series [1] is reported as “minimal changes in cell viability”; in series [6], “did not change relative to the uninfected control”; in [7], “yielded improvements in cell viability”. The “cytotoxicity in uninfected cells” value in series [2], in [4] and in [10] was “no cytotoxicity” in each case. For the same molecule, the CC50 at 72 h in [3], in [5] and in [11] was greater than 10 µM in each case. Besides, the concentration for a half-maximal effect (EC50) in [8] (Dengue virus, DENV2, 72 h, HUH-7 cells, read-out: EC50) was 6.96 µM; in [9] (Dengue virus, DENV2, 96 h), greater than 10 µM; in series [12] (Dengue virus, DENV2, 48 h), greater than 10 µM. For the same molecule, the “viral titers” value in series [8] (HUH-7 cells, 10 µM) is reported as “below the limit of detection”. The “reduction in viral burden” value in [8] (HUH-7 cells, 4 and 6 µM) was roughly 100 fold. Further, the “viral burden in all treatment arms” value in [9] (all concentrations) and in series [12] was “comparable to the no treatment control” throughout.
In the case of `COCCCCCCCCCN1C[C@H](O)[C@@H](O)[C@H](O)[C@H]1CO.Cl` [UV-4B], the “cell viability of infected cells” value is “concentrations ≥ 25 µM caused dramatic increases in cell viability” in series [1]; “moderate declines in viability observed at 100 and 400 µM” in series [6]; “remained comparable to the infected control; also recorded: declines in cell viability observed at UV-4B concentrations of 100 and 400 µM” in series [7]. Besides, the CC50 is greater than 400 µM in series [2], greater than 400 µM in series [4] and 135 µM in [10]. For the same molecule, the Cmax – broadly, the maximum level reached in the sampled fluid or tissue – in series [13] was roughly 40 µM. Besides, in series [14], the “reduction of viral titers, monotherapy” value stood at 1.7 log10 PFU/mL. Besides, the EC50 came to 23.8 µM in series [8] (HUH-7 cells, read-out: EC50); 49.4 µM in series [9]; 37.4 µM in series [12]. Further, the “decline in peak viral titers, monotherapy” value in series [15] is 3.8 log10 PFU/mL. Besides, the “decrease in viral titers” value in series [9] (day 2, 25 µM) is 1.6 log10 PFU/mL; in [9] (day 2, 400 µM) it was 3.6 log10 PFU/mL.
On to interferon-alpha [IFN], for which the CC50 was 1074 IU/mL in series [2], >10,000 IU/mL in [4] and >10,000 IU/mL in [10]. In addition, the “cell viability of infected cells” value is on record as “Percent cell viability stayed constant” in series [6] and “concentrations ≥ 10 IU/mL markedly increased cell viability” in series [7]. Besides, the “reduction of peak titers” value in series [8] (HUH-7 cells, 100 IU/mL) is on record as 2.4 log10 PFU/mL. Besides, the “effect on production of infectious virus” value in [8] (HUH-7 cells, 10,000 IU/mL) is listed as “completely curbed the production of infectious virus”.
